This note sets out measurements from ChEMBL document CHEMBL4483862, “Open-source discovery of chemical leads for next-generation chemoprotective antimalarials” (2018).

In general, IC50 refers to the concentration that gives 50% inhibition. In general, IC90 refers to the concentration at which the effect reaches the 90% level.

The test deals with Plasmodium berghei. Put plainly: Luciferase/luciferin-expressing antifolate-resistant parasites were used to infect a culture of HepG2 cells that were pre-incubated with compounds. Infected hepatocytes emit light due to the luciferase reaction. Assay results are presented as the percent inhibition of light emission compared to control. […]. The class given is functional. Conditions: sporozoite; for IC90: read-out: LUCIFERASE INFECTION ASSAY - IC90.

Setting [1] is: read-out: LUCIFERASE INFECTION ASSAY - IC50.

Take `COc1cc(-c2ccnc3n[nH]c(-c4ccc(N(C)C)cc4)c23)cc(OC)c1OC`: the IC90 stood at 3.63 µM. The IC50 (PBLUC_HILL_SLOPE 14.6, PBLUC_R_SQUARED 0.557, read-out: LUCIFERASE INFECTION ASSAY - IC50) worked out at 3.12 µM.

For `O=C(c1ccoc1)N1CCN(Cc2sc3ccccc3c2Cl)CC1`, the concentration for an effect of 90% (IC90) was more than 10 µM. Moreover, under setting [1], the IC50 is more than 10 µM.

As to `CN(C)CCNC(=O)c1ccc(-c2cnc3c(Nc4cccc(C(F)(F)F)c4)nccn23)cc1`, the IC90 is more than 7.04 µM. Moreover, the half-maximal inhibitory concentration (IC50) (PBLUC_HILL_SLOPE 63.8, PBLUC_R_SQUARED 0.339, read-out: LUCIFERASE INFECTION ASSAY - IC50) was 6.95 µM.

In the case of `COc1cc(C(=O)NCCCn2ccc3ccccc32)cc(OC)c1C`, the IC90 is more than 10 µM. Besides, where the note is “HEPG2TOX_HILL_SLOPE 8.33, HEPG2TOX_R_SQUARED 0.471, PBLUC_HILL_SLOPE 17.9, PBLUC_R_SQUARED 0.367, read-out: LUCIFERASE INFECTION ASSAY - IC50”, the 50% inhibitory concentration (IC50) was determined as 9.65 µM.

Regarding `CCOC(=O)c1sc(NC(=O)c2cc(-c3ccc(F)cc3)nc3ccccc23)cc1C`, the IC90 was determined as 9.91 µM. Also, where the note is “HEPG2TOX_HILL_SLOPE 7.73, HEPG2TOX_R_SQUARED 0.935, PBLUC_HILL_SLOPE 14.3, PBLUC_R_SQUARED 0.729, read-out: LUCIFERASE INFECTION ASSAY - IC50”, the half-maximal inhibitory concentration (IC50) is 8.51 µM.

As for `Cc1cccc(-c2cc(C(=O)Nc3cccc(Cl)c3)[nH]n2)c1O`, the IC90 was 9.89 µM. Further, the half-maximal inhibitory concentration (IC50) (HEPG2TOX_HILL_SLOPE 6.46, HEPG2TOX_R_SQUARED 0.463, PBLUC_HILL_SLOPE 41.9, PBLUC_R_SQUARED 0.193, read-out: LUCIFERASE INFECTION ASSAY - IC50) was 9.38 µM.

For the compound `O=C(Cc1c(F)cccc1Cl)Nc1ccccc1-c1nc2ccccc2[nH]1`, the concentration for an effect of 90% (IC90) was found to be 7.35 µM. Also, the half-maximal inhibitory concentration (IC50) under setting [1] came out at 1.73 µM.

Take `O=C(Nc1nc(-c2cccs2)c(C(=O)C(F)(F)F)s1)c1ccc(S(=O)(=O)N2CCCCC2)cc1`: the IC90 is more than 10 µM. Moreover, the concentration for half-maximal inhibition (IC50) under setting [1] was 9.17 µM.

Turning to `CO[C@H]1[C@@H](O)[C@@H](C)O[C@H](O[C@H]2CC[C@]3(C)C4CC[C@]5(C)[C@@H](C6=CC(=O)OC6)CC[C@]5(O)C4CC[C@]3(O)C2)[C@@H]1O` (some centres undefined), the IC90 was 0.258 µM. Further, the IC50 (HEPG2TOX_HILL_SLOPE 2.49, HEPG2TOX_R_SQUARED 0.917, PBLUC_HILL_SLOPE 3.98, PBLUC_R_SQUARED 0.716, read-out: LUCIFERASE INFECTION ASSAY - IC50) stood at 0.148 µM.

In the case of `CCC(CC)c1nnc(NC(=O)/C=C/c2cn(-c3ccccc3)nc2-c2ccc(F)cc2)s1`, the IC90 was more than 10 µM. For the same compound, under setting [1], the 50% inhibitory concentration (IC50) was more than 10 µM.

Take `O=C(NNC1=NN(c2ccccc2)c2ccc(Br)cc2N1)c1ccc(F)cc1`: the IC90 is more than 10 µM. The IC50 (FFLUC_HILL_SLOPE 3.33, FFLUC_R_SQUARED 0.811, read-out: LUCIFERASE INFECTION ASSAY - IC50) is more than 10 µM.

In the case of `Cc1c(C)n(CCCO)c2ncn3nc(-c4cccs4)nc3c12`, the IC90 was more than 10.1 µM. The concentration for half-maximal inhibition (IC50) (PBLUC_HILL_SLOPE 0.662, PBLUC_R_SQUARED 0.606, read-out: LUCIFERASE INFECTION ASSAY - IC50) amounted to 4.42 µM.

Regarding `Cc1nc2ccc(N/N=C3\C=CC(=O)c4ncccc43)cc2s1`, the concentration for an effect of 90% (IC90) was found to be 4.05 µM. Further, the IC50 (HEPG2TOX_HILL_SLOPE 2.99, HEPG2TOX_R_SQUARED 0.974, PBLUC_HILL_SLOPE 13.8, PBLUC_R_SQUARED 0.408, read-out: LUCIFERASE INFECTION ASSAY - IC50) is 3.46 µM.

In the case of `Cc1cc(C(=O)OCC(=O)c2ccc[nH]2)c2c(C)noc2n1`, the IC90 is more than 10 µM. In addition, the IC50 under setting [1] is more than 10 µM.

Take `N#Cc1cccnc1N1CCN(C(=O)c2cc(-c3ccccc3)nn2-c2ccccc2)CC1`: the concentration for an effect of 90% (IC90) was more than 10 µM. In addition, under setting [1], the IC50 is more than 10 µM.

For `CN(Cc1ccc(C(F)(F)F)cc1)C(=O)c1cc(Br)ccc1O`, the 90% effect concentration (IC90) is more than 10 µM. Moreover, where the note is “FFLUC_HILL_SLOPE 1.16, FFLUC_R_SQUARED 0.0567, read-out: LUCIFERASE INFECTION ASSAY - IC50”, the IC50 is more than 10 µM.

For `O=C(/C=C/c1cccnc1)c1ccc(S(=O)(=O)N2CCCC2)cc1`, the IC90 came out at 7.23 µM. Moreover, where the note is “HEPG2TOX_HILL_SLOPE 1.78, HEPG2TOX_R_SQUARED 0.606, PBLUC_HILL_SLOPE 4.03, PBLUC_R_SQUARED 0.736, read-out: LUCIFERASE INFECTION ASSAY - IC50”, the IC50 is 4.19 µM.

Take `Cc1nn(-c2ccccc2)nc1C(=O)NNC(=S)Nc1ccc(Cl)cc1`: the IC90 was more than 8.53 µM. The IC50 under setting [1] is more than 8.53 µM.

For the compound `CC1=NN(c2ccccc2)C(=O)/C(=C\NC(=O)c2cccc([N+](=O)[O-])c2)N1`, the IC90 turned out to be 8.07 µM. For the same compound, for the setting “HEPG2TOX_HILL_SLOPE 1.78, HEPG2TOX_R_SQUARED 0.224, PBLUC_HILL_SLOPE 3.78, PBLUC_R_SQUARED 0.384, read-out: LUCIFERASE INFECTION ASSAY - IC50”, the half-inhibitory concentration (IC50) amounted to 4.51 µM.

Consider `Cc1ccn2c(=O)cc(CN3C(=O)NC4(CCCc5ccccc54)C3=O)nc2c1` (centres undefined), for which the concentration for an effect of 90% (IC90) was more than 10 µM. Moreover, for the setting “PBLUC_HILL_SLOPE 16.8, PBLUC_R_SQUARED 0.349, read-out: LUCIFERASE INFECTION ASSAY - IC50”, the 50% inhibitory concentration (IC50) stood at 9.44 µM.

As to `Cc1ccc(-c2oc(NC(=O)c3cncc(Br)c3)c(C#N)c2-c2ccc(C)cc2)cc1`, the concentration for an effect of 90% (IC90) was 9.82 µM. The IC50 (FFLUC_HILL_SLOPE 4.83, FFLUC_R_SQUARED 0.721, HEPG2TOX_HILL_SLOPE 9.42, HEPG2TOX_R_SQUARED 0.907, PBLUC_HILL_SLOPE 30.3, PBLUC_R_SQUARED 0.463, read-out: LUCIFERASE INFECTION ASSAY - IC50) stood at 9.13 µM.

On to `N#CCCN(Cc1ccco1)C(=O)CSc1nc2ccccc2c(=O)n1-c1cccc(Cl)c1`, for which the IC90 was more than 10 µM. Besides, under setting [1], the IC50 stood at 7.35 µM.

As for `Cc1ccc(C)c(S(=O)(=O)N2CCN(C(=O)c3[nH]nc4ccccc34)CC2)c1`, the IC90 is 1.72 µM. The 50% inhibitory concentration (IC50) (PBLUC_HILL_SLOPE 2.18, PBLUC_R_SQUARED 0.737, read-out: LUCIFERASE INFECTION ASSAY - IC50) is 0.627 µM.

In the case of `CCN(CC)S(=O)(=O)c1ccc(N/N=C2/C=CC(=O)c3ncccc32)cc1`, the 90% effect concentration (IC90) is more than 10 µM. In addition, under setting [1], the half-inhibitory concentration (IC50) was more than 10 µM.

`CCc1c(C(=O)Nc2nc(C)cs2)cnn1-c1cccc(Cl)c1`: the IC90 was 1.14 µM. Moreover, the half-maximal inhibitory concentration (IC50) (HEPG2TOX_HILL_SLOPE 7.81, HEPG2TOX_R_SQUARED 0.827, PBLUC_HILL_SLOPE 1.59, PBLUC_R_SQUARED 0.7, read-out: LUCIFERASE INFECTION ASSAY - IC50) was found to be 0.286 µM.

Regarding `CCCNC(=O)c1c(NC(=O)c2ccc(F)cc2)nc2ccc(C)cn12`, the 90% effect concentration (IC90) is more than 9.31 µM. In addition, the IC50 (PBLUC_HILL_SLOPE 1.32, PBLUC_R_SQUARED 0.773, read-out: LUCIFERASE INFECTION ASSAY - IC50) is 3.1 µM.

With `Cn1c(-c2ccco2)nc2cnc(Nc3cccc(C(F)(F)F)c3)cc21`, the IC90 is more than 10 µM. The half-maximal inhibitory concentration (IC50) (FFLUC_HILL_SLOPE 19, FFLUC_R_SQUARED 0.549, HEPG2TOX_HILL_SLOPE 17, HEPG2TOX_R_SQUARED 0.382, PBLUC_HILL_SLOPE 1.81, PBLUC_R_SQUARED 0.343, read-out: LUCIFERASE INFECTION ASSAY - IC50) was found to be 8.8 µM.

For the compound `O=C(Nc1ccc(OC(F)(F)F)cc1)Nc1ccc2nc(-c3ccoc3)nn2c1`, the IC90 is more than 10 µM. Under setting [1], the 50% inhibitory concentration (IC50) came out at 10 µM.

With `CC(C)CNc1nn2c(-c3ccc(O)cc3)cnc2s1`, the IC90 was more than 11.4 µM. Under setting [1], the IC50 was more than 11.4 µM.

Take `Cc1cc2oc3c(c2cc1NS(=O)(=O)c1cccs1)CC(C)CC3` (centres undefined): the IC90 was more than 10 µM. Moreover, the IC50 under setting [1] is more than 10 µM.

Take `CCCOc1ccc(/C=N/NC(=S)Nc2ccccc2[N+](=O)[O-])c(O)c1`: the IC90 amounted to 1 µM. Besides, for the setting “HEPG2TOX_HILL_SLOPE 3.34, HEPG2TOX_R_SQUARED 0.913, PBLUC_HILL_SLOPE 0.962, PBLUC_R_SQUARED 0.919, read-out: LUCIFERASE INFECTION ASSAY - IC50”, the IC50 came to 0.102 µM.

`CC(C)[C@H](NC(=O)c1ccccc1Cl)C(=O)OC(C(=O)Nc1cccc(C(F)(F)F)c1)c1ccccc1` (some centres undefined): the concentration for an effect of 90% (IC90) is more than 10 µM. In addition, the IC50 (HEPG2TOX_HILL_SLOPE 0.157, HEPG2TOX_R_SQUARED 0.175, read-out: LUCIFERASE INFECTION ASSAY - IC50) is more than 10 µM.

On to `COc1cc(OC)cc(-c2cc3c(Nc4ccc(OC)c(OC)c4)nccc3[nH]2)c1`, for which the 90% effect concentration (IC90) turned out to be 6.83 µM. In addition, where the note is “HEPG2TOX_HILL_SLOPE 3.11, HEPG2TOX_R_SQUARED 0.652, PBLUC_HILL_SLOPE 1.69, PBLUC_R_SQUARED 0.756, read-out: LUCIFERASE INFECTION ASSAY - IC50”, the IC50 amounted to 1.86 µM.

For the compound `Cc1ccc(C(CCNCc2cccs2)c2ccco2)cc1` (centres undefined), the 90% effect concentration (IC90) was 2.72 µM. The IC50 under setting [1] came out at 1.96 µM.

For `Clc1ccc(OCCN2CCN(c3ccc4nnnn4n3)CC2)cc1`, the IC90 was more than 10 µM. Further, the IC50 (PBLUC_HILL_SLOPE 2.76, PBLUC_R_SQUARED 0.489, read-out: LUCIFERASE INFECTION ASSAY - IC50) is 6.13 µM.

Take `CC(=O)Nc1cccc(Oc2ccc(C(=O)Nc3ccc4ccccc4c3)cc2[N+](=O)[O-])c1`: the 90% effect concentration (IC90) was 1.68 µM. Further, the half-inhibitory concentration (IC50) (HEPG2TOX_HILL_SLOPE 7.7, HEPG2TOX_R_SQUARED 0.774, PBLUC_HILL_SLOPE 1.37, PBLUC_R_SQUARED 0.884, read-out: LUCIFERASE INFECTION ASSAY - IC50) is 0.337 µM.

In the case of `CN(C)C(=O)Oc1ccc2c(-c3ccccc3)cc(=O)oc2c1`, the IC90 is more than 10.7 µM. The IC50 (PBLUC_HILL_SLOPE 7.62, PBLUC_R_SQUARED 0.0613, read-out: LUCIFERASE INFECTION ASSAY - IC50) was more than 10.7 µM.
